Laboratory results taken from PubChem BioAssay (NCI).
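All cell lines were grown in 96-well plates and treated with compound for 48 hours. TGI: total growth inhibition.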

Key:
Assay in all cases: NCI tumour cell line growth inhibition, 48 h
SK-MEL-2 melanoma = test system: SK-MEL-2 melanoma
HCC-2998 colon = test system: HCC-2998 colon
K-562 leukemia = test system: K-562 leukemia
SF-268 CNS = test system: SF-268 CNS
TK-10 renal = test system: TK-10 renal
SK-OV-3 ovarian = test system: SK-OV-3 ovarian
LXFL 529 NSCLC = test system: LXFL 529 NSCLC
NCI-H522 lung = test system: NCI-H522 lung
U251 CNS = test system: U251 CNS
SK-MEL-5 melanoma = test system: SK-MEL-5 melanoma
MALME-3M melanoma = test system: MALME-3M melanoma
OVCAR-5 ovarian = test system: OVCAR-5 ovarian
LOX IMVI melanoma = test system: LOX IMVI melanoma
SNB-19 CNS = test system: SNB-19 CNS
SNB-78 CNS = test system: SNB-78 CNS
RXF 393 renal = test system: RXF 393 renal
CCRF-CEM leukemia = test system: CCRF-CEM leukemia
A549 NSCLC = test system: A549 NSCLC
CAKI-1 renal = test system: CAKI-1 renal
DLD-1 colon = test system: DLD-1 colon
SR leukemia = test system: SR leukemia
XF 498 CNS = test system: XF 498 CNS
M19-MEL melanoma = test system: M19-MEL melanoma
NCI-H23 lung = test system: NCI-H23 lung
ACHN renal = test system: ACHN renal
HOP-92 NSCLC = test system: HOP-92 NSCLC
UO-31 renal = test system: UO-31 renal
SF-539 CNS = test system: SF-539 CNS
HOP-18 NSCLC = test system: HOP-18 NSCLC
EKVX NSCLC = test system: EKVX NSCLC
SN12C renal = test system: SN12C renal
OVCAR-4 ovarian = test system: OVCAR-4 ovarian
OVCAR-3 ovarian = test system: OVCAR-3 ovarian
IGROV1 ovarian = test system: IGROV1 ovarian
NCI-H460 lung = test system: NCI-H460 lung
SW-620 colon = test system: SW-620 colon
DMS 114 small cell lung = test system: DMS 114 small cell lung
786-0 renal = test system: 786-0 renal
HL-60(TB) leukemia = test system: HL-60(TB) leukemia
M14 melanoma = test system: M14 melanoma
RPMI-8226 leukemia = test system: RPMI-8226 leukemia
MOLT-4 leukemia = test system: MOLT-4 leukemia
HCT-116 colon = test system: HCT-116 colon
OVCAR-8 ovarian = test system: OVCAR-8 ovarian
NCI-H226 lung = test system: NCI-H226 lung
SF-295 CNS = test system: SF-295 CNS
SK-MEL-28 melanoma = test system: SK-MEL-28 melanoma
KM12 colon = test system: KM12 colon
A498 renal = test system: A498 renal
DMS 273 small cell lung = test system: DMS 273 small cell lung
HOP-62 NSCLC = test system: HOP-62 NSCLC
HT29 colon = test system: HT29 colon
SNB-75 CNS = test system: SNB-75 CNS
UACC-257 melanoma = test system: UACC-257 melanoma
KM20L2 colon = test system: KM20L2 colon
UACC-62 melanoma = test system: UACC-62 melanoma
COLO 205 colon = test system: COLO 205 colon
HCT-15 colon = test system: HCT-15 colon

Measured: TGI

COc1ccc(-c2cc(C(=O)Nc3cccc(C(F)(F)F)c3)[nH]c(=S)n2)cc1
> 100 µM: all assays above

Cc1ccc(-c2cc(-c3ccco3)nc(N)n2)o1
not listed: HCC-2998 colon | SK-OV-3 ovarian | U251 CNS | CAKI-1 renal | DLD-1 colon | M19-MEL melanoma | HOP-92 NSCLC | HOP-18 NSCLC | DMS 114 small cell lung | A498 renal | UACC-257 melanoma
> 100 µM: all other assays above
